According to publication PMC4534002 (Journal of medicinal chemistry, 2013):

Assays:
[1] = molecular target: T1, CYP3A4 (Homo sapiens, UniProt P08684); assay: Dissociation during repetitive concentration/dilution cycles; format: binding
[2] = molecular target: T1, CYP3A4; assay: Redox potential measurement of inhibitor-bound CYP3A4; details: for Eo,7 (midpoint redox potential of the inhibitor-bound CYP3A4): ligand-free CYP3A4 ~−300 mV, benzyl viologen as redox dye; for negative shift (decrease) in heme redox potential Eo,7 caused by ligation: relative to ligand-free CYP3A4
[3] = molecular target: CYP3A4 S119A (Homo sapiens, UniProt P08684, S119A); assay: Thermal denaturation of CYP3A4 S119A-inhibitor complex; format: binding; details: for Tm: CYP3A4 S119A mutant, ligand-free 54.0 ± 0.1, with 2% DMSO 53.5 ± 0.1; for decrease in Tm of ligand-bound S119A CYP3A4 vs wild type: S119A vs WT
[4] = molecular target: T1, CYP3A4; assay: Thermal denaturation of CYP3A4-inhibitor complex, WT; format: binding; details: WT CYP3A4 2 µM, 10 µM inhibitor; ligand-free 52.6 ± 0.1, with 2% DMSO 52.1 ± 0.1
[5] = molecular target: T1, CYP3A4; assay: Spectral binding titration; details: WT CYP3A4, relative to ritonavir
[6] = molecular target: T1, CYP3A4; assay: BFC hydroxylase activity inhibition in reconstituted system with CPR; details: from IC50 values

reversibility of binding (dissociation from CYP3A4) [1]	Eo,7 (midpoint redox potential of the inhibitor-bound CYP3A4) [2]	negative shift (decrease) in heme redox potential Eo,7 caused by ligation [2]	Tm [3]	decrease in Tm of ligand-bound S119A CYP3A4 vs wild type [3]	Tm (melting temperature of the CYP3A4-inhibitor complex) [4]	fold lower binding affinity for CYP3A4 than ritonavir (from Ks) [5]	fold lower inactivating potency than ritonavir [6]	fold more effective inhibition of BFC hydroxylation than ritonavir [6]	Structure (SMILES)
dissociated	<<-370 mV	> 70 mV	55.5 ± 0.2 °C	1–1.6 °C	56.5 ± 0.2 °C	–	–	–	CC(C)c1nc(CN(C)C(=O)N[C@H](C(=O)N[C@H](CC[C@H](Cc2ccccc2)NC(=O)OCc2cnc[nH]2)Cc2ccccc2)C(C)C)cs1 [compound 1]
dissociated	≈ −370 mV	~ 50 mV	53.2 ± 0.1 °C	1–1.6 °C	54.8 ± 0.1 °C	10 fold	6 fold	–	CC(C)c1nc(CN(C)C(=O)N[C@H](C(=O)N[C@H](CC[C@H](Cc2ccccc2)NC(=O)OCc2cnco2)Cc2ccccc2)C(C)C)cs1 [compound 2]
irreversibly	−350 ± 5 mV	~70 mV	55.6 ± 0.2 °C	1–1.6 °C	57.2 ± 0.2 °C	–	–	2–4 fold	CC(C)c1nc(CN(C)C(=O)N[C@H](C(=O)N[C@H](CC[C@H](Cc2ccccc2)NC(=O)OCc2cccnc2)Cc2ccccc2)C(C)C)cs1 [compound 3]
